# Results: US8338473B2, “Derivatives of psammaplin A, a method for their synthesis and their uses for the prevention or treatment of cancer” (Centre National de la Recherche Scientifique, priority 2007, dated 2012)
# Assays:
# HCT-116 cells = assay: MTT cytotoxicity assay, HCT-116; conditions: read-out: IC50 values, MTT cytotoxicity assay; HCT-116, 48 h
# Method: Plates were kept in the humidified CO2 (5%) incubator overnight so that cells get attached to the bottom. […] Viable cells cleave the MTT tetrazolium ring into a dark blue formazan reaction product, whereas dead cells remain colorless. The MTT-containing medium was gently removed and DMSO was added in each well. After shaking, the plates were read in absorbance at 540 nm. All results are expressed as the average of three wells. Percent cytotoxicity was measured of each compound and represented in terms of its IC50 values.
# [1] = tested on: ex vivo AML patient blasts; assay: Cell cycle and apoptosis in ex vivo AML patient blasts; format: cell-based, human
# Method: FIG. 4: a) Cell cycle analyses and apoptosis carried out in ex vivo samples from AML patients identified with numbers; b) Cell cycle analysis, apoptosis and histone H3 acetylation levels of #116 AML cells after 20 hrs is of the indicated treatments.
# Human leukemia cell line U937 was propagated in RPMI medium supplemented with 10% FBS (Foetal bovine serum; Hyclone) and antibiotics (100 U/mL penicillin, 100 μg/mL streptomycin and 250 ng/mL amphotericin-B). Cells were kept at the constant concentration of 200000 cells per milliliter of culture medium. For AML samples, bone marrow containing 80% to 90% leukemic blasts was purified over Ficoll. This study was approved by the Ethical Committee of the Second University of Naples.
smiles,measurement,setting,value
O=C(NCCSSCCNC(=O)C(Cc1c[nH]c2ccc(Br)cc12)=NO)C(Cc1c[nH]c2ccc(Br)cc12)=NO [UVI5008],IC50,HCT-116 cells,1.8 ± 0.1 µM
same,apoptotic activity,"[1]; 5 μM, two samples of patient blasts",showed an apoptotic activity
same,cell cycle arrest and apoptosis (caspase 3 activation),"[1]; 4 ex vivo cultures, AML patients #102, #108, #109, #116",induced cell cycle arrest and apoptosis
